The values below come from US12590118B2, “Salt and crystal form of steroid derivative regulator” (Shanghai Hansoh Biomedical Co., Ltd., priority 2019, dated 2026).

Molecules are shown by their SMILES.

In the experiment the test system is ICR mice. Nature of the experiment: Forced swimming model in mice. To be noted: for Mean (immobility, %) / Mean (immobility, s): dose 10 mpk p.o.; for Mean (immobility, %): floating time/240 s; for Mean (immobility, s): latter four minutes of 6 min swim; for immobility time during the latter four minutes compared with that of the model group: forced swimming, ICR mice. It counts as in vivo. The protocol: The antidepressant effect of the compound was evaluated by the forced swimming model in mice.
Compounds of Examples 1 to 3, Example 9, Example 40, Example 41, Examples 48 to 52, Example 90 and Example 98 of the present invention, prepared by the applicant.
Male ICR mice (25-35 g) were adapted in the experiment environment for 3 days before the forced swimming test.
According to the experiment design, the mice were randomly grouped on the day before the experiment according to body weight, with 12 mice in each group. Before the test, the compounds of each example were administered intragastrically according to the Tmax thereof in the brain in mice pharmacokinetic experiment.
Respectively: • 1) Model group (0.5% CMC-Na-1% Tween 80 solution, p.o., 10 mL/kg); • 2) Compounds of Examples 1 to 3, Example 40, Example 41, Examples 48 to 51, Example 90 and Example 98 (10 mg/kg, p.o., 10 mL/kg); Example 9 and Example 52 (5 mg/kg, p.o., 5 mL/kg).
When being administered, the compounds of each example were suspended in 0.5% CMC-Na+1% Tween 80 solution to the desired concentration.
0.5-1 hour after administration, ICR mice were placed in a forced swimming device (transparent glass drum (water depth 18 cm, water temperature 25-26° C.), one mouse per tank) and forced to swim for 6 minutes. The forced swimming device recorded the floating time of the ICR mice during the entire 6 minutes, and the data of the latter four minutes were used for data analysis. The mice were taken out immediately after the swimming experiment, wiped dry and put back in their original cages.
Note: The criterion for determining the immobility time is that the mouse stops struggling in water and floats, and there are only slight limb movements to keep the head floating on the water.
3.4 Data Analysis Floating time percentage=100*floating time/240 s.

Turning to `C[C@@]1(O)CC[C@H]2[C@H](CC[C@@H]3[C@@H]2CC[C@@]2(C)[C@H]3[C@H](C3CC3)C[C@@H]2C(=O)Cn2ccc(C#N)n2)C1` [Example 49, 1-(2-((3R,5R,8R,9R,10S,13S,14S,15S,17S)-15-Cyclopropyl-3-hydroxy-3,13-dimethylhexadecahydro-1H-cyclopenta[a]phenanthren-17-yl)-2-oxoethyl)-1H-pyrazole-3-carbonitrile], the “Mean (immobility, %)” value worked out at 35.74%; the “Mean (immobility, s)” value is listed as 85.77 s; the “immobility time during the latter four minutes compared with that of the model group” value is listed as “very significantly different”.
Take `C[C@@]1(O)CC[C@H]2[C@H](CC[C@@H]3[C@@H]2CC[C@@]2(C)[C@H]3[C@H](C3CC3)C[C@@H]2C(=O)Cn2nccn2)C1` [Example 50, 1-((3R,5R,8R,9R,10S,13S,14S,15S,17S)-15-Cyclopropyl-3-hydroxy-3,13-dimethylhexadecahydro-1H-cyclopenta[a]phenanthren-17-yl)-2-(2H-1,2,3-triazol-2-yl)ethan-1-one]: the “Mean (immobility, %)” value is recorded as 29.57%; the “Mean (immobility, s)” value turned out to be 70.96 s; the “immobility time during the latter four minutes compared with that of the model group” value was “very significantly different”.
